In publication PMC10331946, “Characterization of Natural Compounds as Inhibitors of NS1 Endonuclease from Canine Parvovirus Type 2” (Journal of Microbiology and Biotechnology, 2023):
“And” between values parts separate entries of the source, which are not always exact repeats. Equal entries are not always repeated. Where two headings read alike, the source gives them in different places.

Target: T1, CPV-2 NS1 endonuclease (Canine parvovirus type 2, UniProt P12929)
T1 construct: hexahistidine (N); hexahistidine (C); made in house; host or cells: E. coli BL21 (De3) pLysS
Experiment: FRET nicking assay, inhibition of recombinant CPV-2 NS1 endonuclease
Format: biochemical, Canine parvovirus type 2 (CPV-2)
Conditions: for Inhibition (%) at 50 μM: 50 μM inhibitor; for IC50: single compounds, 1.25 μg endonuclease, pH 7.0, 300 mM NaCl, 37°C, curcumin by 4PL, others by linear regression
From the text: The fluorescence resonance energy transfer (FRET) substrate, which was composed of an oligonucleotide 5¢-TAA CCT TAC CAT AAG TA↓T CAA TCT GTC TTT-3¢ labeled with carboxyfluorescein (FAM) at the 5¢-terminus and black hole quencher 1 (BHQ1) at the 3¢-terminus as the energy transfer pair, was designed and synthesized by Bioneer Corp. (Korea) (Fig. S1).
cDNA of the CPV-2 NS1 endonuclease gene was synthesized after codon optimization (Genscript, USA) based on the N-terminal amino acid sequence (amino acids 1–277 of the DNA-binding region) of CPV-2 NS1 endonuclease (GenBank Accession No. AAV36764.1) (Fig. S2). The CPV-2 NS1 endonuclease gene was imbedded into the pET-28a (+) vector (Novagen, Germany) with hexahistidine tags at the N- and C-termini. The plasmids were transformed into E. coli BL21 (De3) pLysS (Invitrogen, USA) for expression. The transformed cells were cultured in 1 L of LB containing 30 μg/ml kanamycin at 37°C until the OD600 reached 0.6. Next, protein expression was induced with 1 mM isopropyl β-D-1-thiogalactopyranoside (IPTG) at 24°C for 20 h. Cells were harvested by centrifugation at 12,000 ×g for 25 min and 4°C. The pellet was resuspended in 50 ml 50 mM Tris-HCl buffer (pH 7.0) containing 300 mM NaCl and disrupted by sonication. After centrifugation at 12,000 ×g for 30 min and 4°C, the supernatant was applied to a Ni-NTA agarose column (Qiagen, Germany) and washed with 50 mM Tris-HCl buffer (pH 8.0) containing 300 mM NaCl and 20 mM imidazole. CPV-2 NS1 endonuclease was eluted with 50 mM Tris-HCl buffer (pH 8.0) containing 300 mM NaCl, and 250 mM imidazole, and dialyzed against 50 mM Tris-HCl (pH 7.0) containing 300 mM NaCl at 4°C overnight. The purified protein was stored at −20°C until required.
CPV-2 NS1 endonuclease activity was measured using an FRET substrate as described above. The reaction mixture was composed of 1.25 μg endonuclease and 0.6 μM FRET in 50 mM Tris-HCl buffer (pH 7.0). The reaction was run at 37°C with continuous monitoring of fluorescence for 10 min. Relative fluorescence units (RFUs) were measured using a SpectraMax M3 fluorescence plate reader (Molecular Devices, USA) with an excitation wavelength of 495 nm and an emission wavelength of 517 nm.
Thirty-one compounds, extracted sesame cake, turmeric, and yerba mate were tested for inhibitory effects against CPV-2 NS1 endonuclease. For screening, thirty-one compounds, turmeric, and yerba mate were dissolved in dimethyl sulfoxide (DMSO) to 5 mM or 10 mg/ml as stock solutions. Sesame cake extract (10 mg/ml) was solubilized in water. The reaction was initiated by adding 0.6 μM FRET substrate to a mixture of 50 μM compound and 1.25 μg endonuclease in 50 mM Tris-HCl buffer (pH 7.0) containing 300 mM NaCl. The reaction was run at 37°C for 3 min using a SpectraMax M3 fluorescence plate reader with an excitation wavelength of 495 nm and emission wavelength of 517 nm. Inhibitory activity was calculated using the following equation:
Inhibition activity (%) 100-[(S-S0)÷(C-C0)]×100
where C is RFU of the control (enzyme, buffer, and substrate) after a 3 min reaction, C0 is the RFU of the control at 0 min, S is the RFU of the sample (enzyme, buffer, inhibitor, and substrate) after 3 min, and S0 is the RFU of the sample at 0 min.
We determined the 50% inhibitory concentrations (IC50) of the six natural compounds, extracted turmeric, yerba mate, and sesame cake relative to the inhibitor-free control. The IC50 values of curcumin, and extracted sesame cake were calculated using a four-parameter logistic curve (4PL) using Prism v. 8 software (GraphPad Software Inc., USA). […] 8 software.

[1] = 0.6 μM FRET substrate, 1.25 μg enzyme, 50 mM Tris/HCl pH 7.0, 37°C, 3 min
[2] = pH 7, 50 μM inhibitor, 0.6 μM FRET substrate, 1.25 μg enzyme, 50 mM Tris/HCl pH 7.0, 37°C, 3 min, read-out: Inhibition (%) at 50 μM
[3] = pH 7, read-out: Inhibition (%) at 50 μM, 50 μM inhibitor, 0.6 μM FRET substrate, 1.25 μg enzyme, 50 mM Tris/HCl pH 7.0, 37°C, 3 min

T1 sequence (P12929 1-277): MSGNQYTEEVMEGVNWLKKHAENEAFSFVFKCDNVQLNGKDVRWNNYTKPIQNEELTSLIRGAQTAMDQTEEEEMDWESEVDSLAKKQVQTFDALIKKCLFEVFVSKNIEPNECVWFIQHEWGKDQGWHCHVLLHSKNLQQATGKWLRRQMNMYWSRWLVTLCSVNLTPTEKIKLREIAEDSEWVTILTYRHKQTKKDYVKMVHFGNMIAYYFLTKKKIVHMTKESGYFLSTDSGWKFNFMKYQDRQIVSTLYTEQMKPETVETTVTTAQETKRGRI

Compound | Inhibition (%) at 50 μM [1] | inhibition at 50 µM [2] | other results
c1cc2c(cc1[C@H]1OC[C@H]3[C@@H]1CO[C@@H]3c1ccc3c(c1)OCO3)OCO2 [(+)-Sesamin] | did not inhibit | 0% | 
O=c1c(O[C@@H]2O[C@H](CO)[C@@H](O)[C@H](O)[C@H]2O)c(-c2ccc(O)cc2)oc2cc(O)cc(O)c12 [Astragalin] | did not inhibit | 0% | 
O=C(/C=C/c1ccc(O)cc1)CC(=O)/C=C/c1ccc(O)cc1 [Bisdemethoxycurcumin] | 100% |  | inhibition at 50 µM [3]: > 95%; IC50 (0.6 μM FRET substrate, 3 min): 450 ± 50 nM
O=C(O)/C=C/c1ccc(O)c(O)c1 [Caffeic acid] | 42 ± 8% |  | Inhibition (%) at 50 μM (0.6 μM FRET substrate, 1.25 μg enzyme, 50 mM Tris/HCl pH 7.0, 37°C, 3 min, listed as caffeic acid): < 50% and > 29%
Cn1c(=O)c2c(ncn2C)n(C)c1=O [Caffeine] | 7 ± 7% |  | Inhibition (%) at 50 μM (0.6 μM FRET substrate, 1.25 μg enzyme, 50 mM Tris/HCl pH 7.0, 37°C, 3 min, listed as caffeine): < 50%
O=C(/C=C/c1ccc(O)c(O)c1)O[C@@H]1C[C@](O)(C(=O)O)C[C@@H](O)[C@H]1O [Chlorogenic acid] | 29 ± 4% |  | Inhibition (%) at 50 μM (0.6 μM FRET substrate, 1.25 μg enzyme, 50 mM Tris/HCl pH 7.0, 37°C, 3 min, listed as chlorogenic acid): < 50% and > 29%
O=c1c(-c2ccc(O)cc2)coc2cc(O)ccc12 [Daidzein] | 22 ± 12% |  | Inhibition (%) at 50 μM (0.6 μM FRET substrate, 1.25 μg enzyme, 50 mM Tris/HCl pH 7.0, 37°C, 3 min, listed as daidzein): < 50%
COc1cc(/C=C/C(=O)CC(=O)/C=C/c2ccc(O)cc2)ccc1O [Demethoxycurcumin] | 100% |  | inhibition at 50 µM [3]: > 95%; IC50 (0.6 μM FRET substrate, 3 min): 630 ± 10 nM
O=C(O[C@@H]1Cc2c(O)cc(O)cc2O[C@@H]1c1cc(O)c(O)c(O)c1)c1cc(O)c(O)c(O)c1 [EGCG, epigallocatechin gallate] | 49 ± 6% |  | Inhibition (%) at 50 μM (0.6 μM FRET substrate, 1.25 μg enzyme, 50 mM Tris/HCl pH 7.0, 37°C, 3 min, listed as epigallocatechin gallate): < 50%
COc1cc(/C=C/C(=O)O)ccc1O [Ferulic acid] | 37 ± 5% |  | Inhibition (%) at 50 μM (0.6 μM FRET substrate, 1.25 μg enzyme, 50 mM Tris/HCl pH 7.0, 37°C, 3 min, listed as ferulic acid): < 50%
O=c1c(O)c(-c2ccc(O)c(O)c2)oc2cc(O)ccc12 [Fisetin] | did not inhibit | 0% | 
O=C(O)c1cc(O)c(O)c(O)c1 [Gallic acid] | 2 ± 2% |  | Inhibition (%) at 50 μM (0.6 μM FRET substrate, 1.25 μg enzyme, 50 mM Tris/HCl pH 7.0, 37°C, 3 min, listed as gallic acid): < 50%
O=c1c(-c2ccc(O)cc2)coc2cc(O)cc(O)c12 [Genistein] | 45 ± 14% |  | inhibition at 50 µM [3]: < 50%
O=C1O[C@H]([C@@H](O)CO)C(O)=C1O [L-Ascorbic acid] | did not inhibit | 0% | 
C[N+](C)(C)C[C@H](O)CC(=O)[O-] [L-carnitine] | < 50% and 29 ± 2% |  | 
CCCCC/C=C\C/C=C\CCCCCCCC(=O)O [Linoleic acid] | 100% |  | inhibition at 50 µM [3]: > 95%; IC50 (0.6 μM FRET substrate, 3 min): 1140 ± 40 nM
O=c1c2cc(O)c(O)cc2oc2cc(O)c([C@@H]3O[C@H](CO)[C@@H](O)[C@H](O)[C@H]3O)c(O)c12 [Mangiferin] | did not inhibit | 0% | 
O=c1c(O)c(-c2cc(O)c(O)c(O)c2)oc2cc(O)cc(O)c12 [Myricetin] | did not inhibit | 0% | 
O=C1C[C@@H](c2ccc(O)cc2)Oc2cc(O)cc(O)c21 [Naringenin] | did not inhibit | 0% | 
CC1(C)CC[C@]2(C(=O)O)CC[C@]3(C)C(=CC[C@@H]4[C@@]5(C)CC[C@H](O)C(C)(C)[C@@H]5CC[C@]43C)[C@@H]2C1 [Oleanolic acid] | 51 ± 7% |  | Inhibition (%) at 50 μM (0.6 μM FRET substrate, 1.25 μg enzyme, 50 mM Tris/HCl pH 7.0, 37°C, 3 min, listed as oleanolic acid): > 29%
O=C(/C=C/C=C/c1ccc2c(c1)OCO2)N1CCCCC1 [Piperine] | did not inhibit | 0% | 
O=c1c(O)c(-c2ccc(O)c(O)c2)oc2cc(O)cc(O)c12 [Quercetin] | 51 ± 3% |  | Inhibition (%) at 50 μM (0.6 μM FRET substrate, 1.25 μg enzyme, 50 mM Tris/HCl pH 7.0, 37°C, 3 min, listed as quercetin): > 29%
Oc1ccc(/C=C/c2cc(O)cc(O)c2)cc1 [Resveratrol] | did not inhibit | 0% | 
C[C@@H]1O[C@@H](OC[C@H]2O[C@@H](Oc3c(-c4ccc(O)c(O)c4)oc4cc(O)cc(O)c4c3=O)[C@H](O)[C@@H](O)[C@@H]2O)[C@H](O)[C@H](O)[C@H]1O [Rutin] | did not inhibit | 0% | 
Oc1ccc2c(c1)OCO2 [Sesamol] | 9 ± 5% |  | Inhibition (%) at 50 μM (0.6 μM FRET substrate, 1.25 μg enzyme, 50 mM Tris/HCl pH 7.0, 37°C, 3 min, listed as sesamol): < 50%
c1cc2c(cc1O[C@H]1OC[C@H]3[C@@H]1CO[C@@H]3c1ccc3c(c1)OCO3)OCO2 [Sesamolin] | did not inhibit | 0% | 
C[C@H]1[C@H](C)CC[C@]2(C(=O)O)CC[C@]3(C)C(=CC[C@@H]4[C@@]5(C)CC[C@H](O)C(C)(C)[C@@H]5CC[C@]43C)[C@H]12 [Ursolic acid] | 29 ± 5% |  | Inhibition (%) at 50 μM (0.6 μM FRET substrate, 1.25 μg enzyme, 50 mM Tris/HCl pH 7.0, 37°C, 3 min, listed as ursolic acid): < 50% and > 29%
CC1=C(C/C=C(\C)CCC[C@H](C)CCC[C@H](C)CCCC(C)C)C(=O)c2ccccc2C1=O [Vitamin K1] |  | 68 ± 15% | 
